From article PMC6930524, “A Prospective Repurposing of Dantrolene as a Multitarget Agent for Alzheimer’s Disease” (Molecules, 2019)

Tests used:
[1] = tested on: CAC mutants C136S, C155S, C136/155S, C-lessV; assay: Transport activity of cysteine-modified CAC mutants in proteoliposomes; format: biochemical, rat; conditions: 10 μM, C-less V compared with WT
Procedure: The reducing properties of DAN were studied on the recombinant WT CAC with the protein at different states of oxidation. Figure 8B highlights that when the carrier was incubated during the transport activity with 1 mM dithioerythritol (DTE), 10 µM DAN was able to reduce a major aliquot of oxidized protein (70% recovery of activity compared to the control). […] To identify the cysteines responsible for the activation of the CAC carrier, the proteoliposomes of the WT protein and the mutants C136S, C155S, C136/155S, and C-lessV (C23V/C58V/C89S/C136V/C155V/C283S) were incubated with 10 μM DAN. […] Further evidence of the reducing action of DAN on CAC was obtained by oxidation of the reconstituted WT protein under controlled conditions, i.e., in the presence or absence of hydrogen peroxide and its subsequent degradation by the enzyme catalase. […]
Before starting the transport activity, proteoliposomes were passed through a Sephadex G-75 column (0.7 cm diameter; 15 cm height; Pharmacia, Milan, Italy) to remove the external substrate. […] Finally, the external substrate was removed by chromatography on Sephadex G-75 columns (0.7 cm diameter; 10 cm height) and intraliposomal radioactivity was measured by a liquid scintillation counter (Perkin Elmer, Milan, Italy).

hMAO A = biological target: T1, hMAO A (Homo sapiens, UniProt P21397); assay: biochemical
T1 sequence (P21397 1-527): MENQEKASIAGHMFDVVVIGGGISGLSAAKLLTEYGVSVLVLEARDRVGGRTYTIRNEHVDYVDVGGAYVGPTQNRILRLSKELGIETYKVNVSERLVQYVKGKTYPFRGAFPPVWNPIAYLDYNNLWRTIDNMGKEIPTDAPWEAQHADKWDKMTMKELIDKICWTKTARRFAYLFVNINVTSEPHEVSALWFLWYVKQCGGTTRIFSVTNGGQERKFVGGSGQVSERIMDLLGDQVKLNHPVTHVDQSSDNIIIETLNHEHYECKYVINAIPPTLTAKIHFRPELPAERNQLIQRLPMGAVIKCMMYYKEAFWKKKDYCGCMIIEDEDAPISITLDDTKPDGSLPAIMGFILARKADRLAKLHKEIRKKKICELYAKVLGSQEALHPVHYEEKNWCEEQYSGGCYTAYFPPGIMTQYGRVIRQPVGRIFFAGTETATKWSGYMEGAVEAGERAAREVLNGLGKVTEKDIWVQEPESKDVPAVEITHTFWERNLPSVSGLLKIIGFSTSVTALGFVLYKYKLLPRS
Procedure: Selectivity over the corresponding isoforms hMAO A and butyrylcholinesterase (hBChE) was also verified.
An already published protocol using human recombinant monoamine oxidases A (250 U/mg) and B (59 U/mg; microsomes from baculovirus infected insect cells) [29] was used by applying a 96-well plate technique (instrument Infinite M1000 Pro, Tecan, Cernusco s.N., Italy). Briefly, compounds at a concentration ranging from 30 to 0.01 μM were preincubated 20 min at 37 °C with substrate kynuramine, in phosphate buffer 8.0 made 0.39 osmolar with KCl. After addition of enzyme and further 30 min of incubation, NaOH was added and the fluorescence read at 310/400 excitation/emission wavelength. Experiments were performed in duplicates in black, flat-bottomed polystyrene 96-well microtiter plates (Greiner Bio-One GmbH, Frickenhausen, Germany). […] Inhibition values and kinetics were calculated by means of Prism (GraphPad Prism version 5.00 for Windows, GraphPad Software, San Diego, CA, USA).

## O=C1CN(/N=C/c2ccc(-c3ccc([N+](=O)[O-])cc3)o2)C(O)=N1 [Dantrolene]
[1]
  increase in transport activity on cysteine mutants: significantly lost
hMAO A
  IC50: 14 ± 1 µM
